Data set [1] deals with acute daunorubicin toxicity. The settings on record: Herman et al, Res. Commun. Chem. Pathol. Pharmacol., 1985, 48, 39; cited from earlier work.
Data set [2] relates to daunorubicin toxicity; doxorubicin toxicity. As to conditions: Herman et al, Adv. Pharmacol. Chemother., 1982, 19, 249; cited from earlier work.
Data set [3] is described as follows: Body weight (general acute toxicity) after i.p. pretreatment and doxorubicin. In kind it is in vivo, Sprague Dawley rats. The protocol:
(§1) Mature male Sprague Dawley rats, 13-14 weeks old, weighing 400-500 gm were used. The animals were caged in groups of three and were kept in a constant environment. They were fed 41-B cubed diet and water ad libitum. The animal house was maintained in an alternating 12-hour wake-sleep cycle.
(§2) The cardioprotective activity of (±) trans-1,2-bis(3,5-dioxopiperazin-1-yl)cyclobutane (hereinafter referred to as the compound) was studied in the rats. […] The suspension was prepared shortly before use and was administered at a constant injection volume of 1 ml per 100 gm body weight. Doxorubicin hydrochloride (hereafter referred to as doxorubicin) (Farmitalia, Milan, Italy) was dissolved in sterile water (2 mg/ml) before injection.
(§3) A group of 6 animals received a combined treatment of the compound and doxorubicin. The compound was administered to animals as a single intraperitoneal (i.p.) injection into the lower right quadrant of the abdomen to avoid damage to vital organs. An hour after the administration of the compound, the animals received a single intravenous (i.v.) injection of doxorubicin (4 mg/kg), via the femoral vein. A group of 10 animals received an i.p. injection of saline (1 ml/100 gm) followed by an i.v. injection of saline (0.2 ml/100 gm) one hour later. These rats acted as control animals. Nine animals received an i.p. injection of saline one hour before an i.v. administration of doxorubicin (4 mg/kg). To minimise the effects of circadian timing, doxorubicin administration was carried out between 13.30 hours and 15.30 hours. During intravenous drug administration and for subsequent cardiac output measurements, animals were anaesthetised with choral hydrate (300 mg/kg).
The animals were weighed daily for up to three weeks after receiving treatment. The maximum reduction in body weight over this period was used as an index for the assessment of general acute toxicity. Animals were also weighed at 4 and 8 weeks to assess the general toxicity of the drug.
(§4) In this study, statistical differences between group means were analysed using Student's t-test.

Data set [4] concerns doxorubicin-induced cardiotoxicity. Description: Protective activity against doxorubicin-induced cardiotoxicity: cardiac output, heart rate, survival, congestive heart failure at 8 weeks. The format is in vivo, Sprague Dawley rats. As to conditions: for Survival: survivors/animals; for Incidence of CHF (congestive heart failure): over 8 weeks. The protocol: as §1, §2, §3
The protective activity of the compound against doxorubicin-induced cardiotoxicity in the rats was assessed at 8 weeks by measuring the cardiac output in animals receiving the treatment using an external counting technique wherein a radioactive tracer, technetium (^99m TcO4), was injected as a bolus into the femoral vein of an anaesthetised animal. The activity time curve over the heart was recorded at 0.1 second intervals for 40 seconds, using an NaI detector connected to a multi-channel analyzer (ND-62, Nuclear Data). ECG and heart rate were determined concomitantly with the cardiac output measurement, using a human ECG monitor (Hewlett Packard 7830A) coupled to a scope memory (model VK-12-2, Seltek Instrument Ltd.) and a chart recorder.
Gross post mortem examinations were carried out on the animals that died during the study as well as those killed at the end of experiment (8 weeks).
as §4

The nature of data set [5]: Solubility in saline / aqueous media. As to conditions: administered as suspension in 0.5% CMC. In kind it is physicochemical.
The mark [6] stands for this setting: saline i.p. + doxorubicin 4 mg/kg i.v. after 1 hour.
Where [7] appears, read: saline + doxorubicin 4 mg/kg, 8 weeks.
[8] abbreviates: saline i.p. + doxorubicin 4 mg/kg i.v. after 1 hour, 8 weeks.
[9] abbreviates: compound 100 mg/kg i.p. + doxorubicin 4 mg/kg i.v. after 1 hour, 8 weeks.
Setting [10] is: compound 150 mg/kg i.p. + doxorubicin 4 mg/kg i.v. after 1 hour, 8 weeks.
Where [11] appears, read: compound 200 mg/kg i.p. + doxorubicin 4 mg/kg i.v. after 1 hour, 8 weeks.
[12] abbreviates: compound 100, 150 or 200 mg/kg i.p. + doxorubicin 4 mg/kg.

The structures appear in SMILES notation. Where only a bound is given, the exact number is not on record here.

`CC(CN1CC(=O)NC(=O)C1)N1CC(=O)NC(=O)C1` (racemic) [the compound having R=CH3 and R'=R"=H (as the dl, d or l isomer)]: in data set [1], the “protective effect against acute daunorubicin toxicity” value (shortened to “protective effect”) is listed as “give protection against the lethal effects of daunorubicin”.
For `CCC(CN1CC(=O)NC(=O)C1)N1CC(=O)NC(=O)C1` (racemic) [R=C2 H5 and R'=R"=H (dl)], in data set [1], the “protective effect” value is “either no protective activity or only minimal protective activity”.
For the compound `CC(CN1CC(=O)NC(=O)C1)N1CC(=O)NC(=O)C1` (racemic) [ICRF 159], in data set [2], the “effectiveness in reducing high dose daunorubicin toxicity relative to doxorubicin toxicity” value is recorded as “consistently more effective in reducing high dose daunorubicin toxicity than doxorubicin toxicity”.
In the case of `O=C1CN(CCCN2CC(=O)NC(=O)C2)CC(=O)N1`, the “protective effect” value in data set [1] is given as “either no protective activity or only minimal protective activity”.
For the compound `C[C@H]([C@H](C)N1CC(=O)NC(=O)C1)N1CC(=O)NC(=O)C1` [R=R'=CH3 and R"=H (meso)], in data set [1], the “protective effect” value is reported as “either no protective activity or only minimal protective activity”.
`CN1C(=O)CN(CCN2CC(=O)N(C)C(=O)C2)CC1=O` [R=R'=H and R"=CH3]: the “protective effect” value in data set [1] was “either no protective activity or only minimal protective activity”.
On to `O=C1CN(CCN2CC(=O)N(CN3CCOCC3)C(=O)C2)CC(=O)N1CN1CCOCC1` [bimolane], for which the “protective effect” value in data set [1] was “give protection against the lethal effects of daunorubicin”.
In the case of `CC[C@H]([C@H](C)N1CC(=O)NC(=O)C1)N1CC(=O)NC(=O)C1` (relative stereo) [R: CH3, R'=C2 H5 and R"=H (dl-erythro)], the “protective effect” value in data set [1] is recorded as “either no protective activity or only minimal protective activity”.
`O=C1CN(C2CCC2N2CC(=O)NC(=O)C2)CC(=O)N1` (stereo not drawn) [R+R'=--CH2 --CH2 -- and R"=H]: the “protective effect” value in data set [1] is on record as “either no protective activity or only minimal protective activity”.
Regarding `CC(CN1CC(=O)N(C)C(=O)C1)N1CC(=O)N(C)C(=O)C1` (stereo not drawn) [R=R"=CH3and R'=H (l)], the “protective effect” value in data set [1] is “either no protective activity or only minimal protective activity”.
On to `O=C1CN(CCN2CC(=O)NC(=O)C2)CC(=O)N1` [R=R'=R"=H], for which the “protective effect” value in data set [1] is “either no protective activity or only minimal protective activity”.
In the case of `COc1cccc2c1C(=O)c1c(O)c3c(c(O)c1C2=O)C[C@@](O)(C(=O)CO)C[C@@H]3O[C@H]1C[C@H](N)[C@H](O)[C@H](C)O1` [doxorubicin], in data set [3] (doxorubicin 4 mg/kg i.v., pretreated with saline i.p.), the “reduction in body weight in the first three weeks after treatment” value is reported as over 10%. In data set [3] (setting [6]), the “W2: mean body weight at 4 weeks after treatment” value was found to be 381 ± 8, the “W3: mean body weight at 8 weeks after treatment” value came out at 324 ± 27 and the “ΔW(%): maximum reduction in body weight in the first 3 weeks after treatment” value is reported as 11.6 ± 0.7%. Further, the “W1: mean body weight of animals at the time of injection” value in data set [3] (saline i.p. + doxorubicin 4 mg/kg i.v. after 1 hour, baseline) is given as 447 ± 11. Further, in data set [4] (setting [7]), the “reduction in cardiac output” value is 60% and the “reduction in heart rate” value is listed as 35%. Further, the death during study entry in data set [4] (saline + doxorubicin 4 mg/kg, 9 animals) is listed as “one animal died just before 8 weeks”. Further, in data set [4] (setting [8]), the “RCO: mean relative cardiac output (treated / age-matched control)” value is 0.41 ± 0.04, the “RHR: mean relative heart rate (treated / age-matched control)” value was 0.65 ± 0.19 and the Survival is 8/9. Moreover, in data set [4] (setting [6]), the “Incidence of CHF (congestive heart failure)” value was 0/8.
Take `O=C1CN([C@@H]2CC[C@H]2N2CC(=O)NC(=O)C2)CC(=O)N1` (racemic) [Compound, (±) trans-1,2-bis(3,5-dioxopiperazin-1-yl)cyclobutane]: in data set [5], the solubility in saline entry is listed as “inadequately soluble in saline”. Also, in data set [4] (animals pretreated with the compound + doxorubicin 4 mg/kg), the “change in heart rate” value is given as “no change in heart rate”. In addition, the “RCO: mean relative cardiac output (treated / age-matched control)” value in data set [4] (setting [9]) was determined as 0.80 ± 0.05; in data set [4] (setting [10]), 0.86 ± 0.06; in data set [4] (setting [11]), 0.84 ± 0.05. For the same compound, the entries for the “RHR: mean relative heart rate (treated / age-matched control)” value in data set [4] (setting [9]), in data set [4] (setting [10]) and in data set [4] (setting [11]) were 1.04 ± 0.03, 1.00 ± 0.04 and 1.05 ± 0.03, respectively. Moreover, the Survival in data set [4] (setting [9]), in data set [4] (setting [10]) and in data set [4] (setting [11]) was 6/6 in each case. Moreover, the “Incidence of CHF (congestive heart failure)” value in data set [4] (compound 100 mg/kg i.p. + doxorubicin 4 mg/kg i.v. after 1 hour), in data set [4] (compound 150 mg/kg i.p. + doxorubicin 4 mg/kg i.v. after 1 hour) and in data set [4] (compound 200 mg/kg i.p. + doxorubicin 4 mg/kg i.v. after 1 hour) was 0/6 in each case. The “activity against doxorubicin-induced cardiotoxicity” value in data set [4] (setting [12]) was “significant activity against doxorubicin-induced cardiotoxicity”. In data set [4] (setting [12]), the “survival (in words)” value is on record as “survived the course of study of 8 weeks”. Also, the “signs of congestive failure” value in data set [4] (compound 100, 150 or 200 mg/kg i.p. + doxorubicin 4 mg/kg, 8 weeks) is recorded as “without showing any signs of congestive failure”. The “impairment in cardiac output compared to saline and doxorubicin” value in data set [4] (compound 100, 150 or 200 mg/kg i.p. + doxorubicin 4 mg/kg, p<0.001) is listed as “significantly less impairment in cardiac output”. Also, the “dose dependence of the protective activity” value in data set [4] (dose range 100-200 mg/kg i.p. + doxorubicin 4 mg/kg) is given as “no indication of dose dependent changes in the protective activity”.

(Values after patent US5438057A, “Pharmaceutical compositions” (priority 1991, dated 1995).)
